The values that follow come from US8648085B2, “1, 5-dihydro-pyrazolo (3, 4-D) pyrimidin-4-one derivatives and their use as PDE9A mudulators for the treatment of CNS disorders” (Boehringer Ingelheim International GmbH, priority 2007, dated 2014).

Each structure is given as a SMILES string.

Usually inhibition stands for the relative decrease from the control value, in per cent. A word on the IC50: it is the point on the concentration scale where inhibition reaches its midpoint. Lower therefore signals greater potency.

One test deals with T1, PDE1C (Homo sapiens, UniProt Q14123).
T1 construct: made in house; host or cells: SF9 insect cells (crude lysate used as enzyme source)
The experiment in a line: PDE enzymatic activity assay (SPA), PDE1C, cAMP as substrate. To be noted: ratio IC50 PDE1C / IC50 PDE9A; for illustrative purposes. It counts as biochemical. Here is the method: (§1) The PDE enzymatic activity assays were run as SPA, in general according to the protocol of the manufacturer (Amersham Biosciences, product number: TRKQ 7100). As enzyme source, lysate (PBS with 1% Triton X-100 supplemented with protease inhibitors, cell debris removed by centrifugation at 13.000 rpm for 30 min) of SF 9 cell expressing the human PDE of interest was used. The total protein amount included in the assay varied upon infection and production efficacy of the SF9 cells and lay in the range of […].
(§2) In general, the assay conditions were as follows: • total assay volume: 40 μl • protein amount: 0.1-50 ng • substrate concentration (cGMP or cAMP): 20 nM; ˜1 mCi/l • incubation time: 60 min at room temperature • final DMSO concentration: 1%
(§3) The assays were run in 384-well format. The test reagents as well as the enzyme and the substrate were diluted in assay buffer. The assay buffer contained 50 mM Tris, 8.3 mM MgCl2, 1.7 mM EGTA, 0.1% BSA, 0.05% Tween 20; the pH of assay buffer was adjusted to 7.5. In case activity of PDE1C was analysed, 50 nM Calmodulin and 3 mM CaCl2 were included in the assay buffer. In case PDE9 activity was analyzed, the reaction was stopped by applying a PDE9 specific inhibitor (e.g. compounds according to WO2004/099210). PDE1C was analysed with cAMP as substrate, and PDE9 was analyzed with cGMP as substrate.
(§4) IC50 can be calculated in a conventional way, eventually with the help of GraphPadPrism or other suited software setting the positive control as 100 and the negative control as 0. For calculation of IC50 usually 8 dilutions of the test compound ([…]) are to be selected and tested following the aforementioned protocol.

The next test addresses PDE9A (Homo sapiens, UniProt O76083). The test is described as follows: PDE enzymatic activity assay (SPA), PDE9A. The class given is biochemical. Further details: made in house; host or cells: SF9 insect cells (crude lysate used as enzyme source). The note with it: cGMP substrate, for illustrative purposes; for inhibition at 10 µM: 10 micromolar; for IC50: given as ranges. Here is the method: as §1, §2, §3
Calculation of % Inhibition:
The activity of the positive control (minus the negative control=background) is set to 100% and activity in the presence of test compound is expressed relative to these 100%.
Within this setting, an inhibition above 100% might be possible due to the nature of the variation of the positive control within the assay, however, in this case the reported % inhibition had been adjusted to 100%.
as §4

Chain of PDE9A (O76083 whole entry): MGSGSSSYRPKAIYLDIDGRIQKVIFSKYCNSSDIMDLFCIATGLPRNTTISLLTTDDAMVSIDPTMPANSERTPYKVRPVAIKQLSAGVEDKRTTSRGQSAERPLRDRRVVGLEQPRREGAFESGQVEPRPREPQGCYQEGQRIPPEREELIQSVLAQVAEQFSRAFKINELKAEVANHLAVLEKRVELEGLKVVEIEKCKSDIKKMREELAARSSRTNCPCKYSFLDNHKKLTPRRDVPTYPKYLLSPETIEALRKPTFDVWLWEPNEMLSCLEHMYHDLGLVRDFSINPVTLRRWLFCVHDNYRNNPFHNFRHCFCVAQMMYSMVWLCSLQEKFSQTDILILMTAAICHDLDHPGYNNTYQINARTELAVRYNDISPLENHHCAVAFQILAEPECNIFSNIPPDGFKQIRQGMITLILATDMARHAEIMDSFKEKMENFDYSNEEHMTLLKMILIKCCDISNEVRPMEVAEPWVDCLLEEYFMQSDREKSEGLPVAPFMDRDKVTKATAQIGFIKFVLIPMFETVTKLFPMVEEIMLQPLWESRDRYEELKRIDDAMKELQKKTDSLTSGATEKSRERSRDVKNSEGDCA

For the molecule `O=c1[nH]c(Cc2ccccc2OC(F)(F)F)nc2c1cnn2-c1cnccc1C(F)(F)F` [Example 32, 6-(2-Trifluoromethoxy-benzyl)-1-(4-trifluoromethyl-pyridin-3-yl)-1,5-dihydro-pyrazolo[3,4-d]pyrimidin-4-one], the “Selectivity = IC50 PDE 1C/IC50 PDE9A (both nanomolar)” value (shortened to “Selectivity = IC50 PDE 1C/IC50 PDE9A”) at PDE1C stood at 11. Moreover, at PDE9A, the inhibition at 10 µM amounted to 91% and the IC50 was 10 to 500 nM.
Turning to `Cc1ccc(Cl)c(-n2ncc3c(=O)[nH]c(Cc4ccccc4OC(F)(F)F)nc32)c1` [Example 3, 1-(2-Chloro-5-methyl-phenyl)-6-(2-trifluoromethoxy-benzyl)-1,5-dihydro-pyrazolo[3,4-d]pyrimidin-4-one], the “Selectivity = IC50 PDE 1C/IC50 PDE9A” value at PDE1C was 4. Further, at PDE9A, the inhibition at 10 µM stood at 95% and the IC50 is 10 to 500 nM.
For `Cc1ccc(Cl)cc1-n1ncc2c(=O)[nH]c(Cc3ccccc3OC(F)(F)F)nc21` [Example 15, 1-(5-Chloro-2-methyl-phenyl)-6-(2-trifluoromethoxy-benzyl)-1,5-dihydro-pyrazolo[3,4-d]pyrimidin-4-one], the “Selectivity = IC50 PDE 1C/IC50 PDE9A” value on PDE1C was 271. In addition, on PDE9A, the inhibition at 10 µM was 94% and the IC50 is 10 to 500 nM.
On to `O=c1[nH]c(Cc2ccccc2OC(F)(F)F)nc2c1cnn2-c1cc(F)ccc1Cl` [Example 5, 1-(2-Chloro-5-fluoro-phenyl)-6-(2-trifluoromethoxy-benzyl)-1,5-dihydro-pyrazolo[3,4-d]pyrimidin-4-one], for which, on PDE1C, the “Selectivity = IC50 PDE 1C/IC50 PDE9A” value came out at 7. For the same molecule, at PDE9A, the inhibition at 10 µM stood at 96% and the IC50 was 10 to 500 nM.
Take `Cc1ccc(C)c(-n2ncc3c(=O)[nH]c(Cc4ccccc4OC(F)(F)F)nc32)c1` [Example 18, 1-(2,5-Dimethyl-phenyl)-6-(2-trifluoromethoxy-benzyl)-1,5-ihydro-pyrazolo[3,4-d]pyrimidin-4-one]: the “Selectivity = IC50 PDE 1C/IC50 PDE9A” value at PDE1C is recorded as 28. At PDE9A, the inhibition at 10 µM worked out at 86% and the IC50 lay within 10 to 500 nM.
For `O=c1[nH]c(Cc2ccccc2OC(F)(F)F)nc2c1cnn2-c1cc(Br)ccc1Cl` [Example 6, 1-(5-Bromo-2-chloro-phenyl)-6-(2-trifluoromethoxy-benzyl)-1,5-dihydro-pyrazolo[3,4-d]pyrimidin-4-one] the same measures were 112, 88% and 10 to 500 nM.
For `O=c1[nH]c(Cc2ccccc2OC(F)(F)F)nc2c1cnn2-c1cc(O)ccc1Cl` [Example 30-3, 1-(2-Chloro-5-hydroxy-phenyl)-6-(2-trifluoromethoxy-benzyl)-1,5-dihydro-pyrazolo[3,4-d]pyrimidin-4-one] the same measures were 14, 100% and 10 to 500 nM.
Turning to `O=c1[nH]c(Cc2ccccc2OC(F)(F)F)nc2c1cnn2-c1cc(F)ccc1Br` [Example 7, 1-(2-Bromo-5-fluoro-phenyl)-6-(2-trifluoromethoxy-benzyl)-1,5-dihydro-pyrazolo[3,4-d]pyrimidin-4-one], on PDE1C, the “Selectivity = IC50 PDE 1C/IC50 PDE9A” value is reported as 9. Moreover, on PDE9A, the inhibition at 10 µM was determined as 91% and the concentration for half-maximal inhibition (IC50) was 10 to 500 nM.
As for `O=c1[nH]c(Cc2ccccc2OC(F)(F)F)nc2c1cnn2-c1c(Cl)cccc1Cl` [Example 25, 1-(2,6-Dichloro-phenyl)-6-(2-trifluoromethoxy-benzyl)-1,5-dihydro-pyrazolo[3,4-d]pyrimidin-4-one], the “Selectivity = IC50 PDE 1C/IC50 PDE9A” value at PDE1C amounted to 24. Besides, on PDE9A, the inhibition at 10 µM was determined as 58% and the IC50 was greater than 500 nM.
Regarding `Cc1ccc(F)cc1-n1ncc2c(=O)[nH]c(Cc3ccccc3OC(F)(F)F)nc21` [Example 14, 1-(5-Fluoro-2-methyl-phenyl)-6-(2-trifluoromethoxy-benzyl)-1,5-dihydro-pyrazolo[3,4-d]pyrimidin-4-one], on PDE1C, the “Selectivity = IC50 PDE 1C/IC50 PDE9A” value amounted to 14. In addition, on PDE9A, the inhibition at 10 µM is 95% and the IC50 was in the range of 10 to 500 nM.
Consider `COc1ccc(Cl)cc1-n1ncc2c(=O)[nH]c(Cc3ccccc3OC(F)(F)F)nc21` [Example 4, 1-(5-Chloro-2-methoxy-phenyl)-6-(2-trifluoromethoxy-benzyl)-1,5-dihydro-pyrazolo[3,4-d]pyrimidin-4-one], for which the “Selectivity = IC50 PDE 1C/IC50 PDE9A” value at PDE1C came to 88. Besides, on PDE9A, the inhibition at 10 µM turned out to be 102% and the IC50 was in the range of 10 to 500 nM.
With `Cc1ccncc1-n1ncc2c(=O)[nH]c(Cc3ccccc3OC(F)(F)F)nc21` [Example 1, 1-(4-Methyl-pyridin-3-yl)-6-(2-tri-fluoromethoxy-benzyl)-1,5-dihydro-pyrazolo[3,4-d]pyrimidin-4-one], the “Selectivity = IC50 PDE 1C/IC50 PDE9A” value at PDE1C was found to be 39. Moreover, at PDE9A, the inhibition at 10 µM came to 99% and the IC50 is 10 to 500 nM.
For `O=c1[nH]c(Cc2ccccc2OC(F)(F)F)nc2c1cnn2-c1ccc(F)cc1Br` [Example 9, 1-(2-Bromo-4-fluoro-phenyl)-6-(2-trifluoromethoxy-benzyl)-1,5-dihydro-pyrazolo[3,4-d]pyrimidin-4-one] the same measures were 6, 90% and 10 to 500 nM.
On to `O=c1[nH]c(Cc2ccccc2OC(F)(F)F)nc2c1cnn2-c1ccc(F)cc1O` [Example 31, 1-(2-Hydroxy,4-fluoro-phenyl)-6-(2-trifluoromethoxy-benzyl)-1,5-dihydro-pyrazolo[3,4-d]pyrimidin-4-one], for which the “Selectivity = IC50 PDE 1C/IC50 PDE9A” value at PDE1C worked out at 8. Further, on PDE9A, the inhibition at 10 µM is 82% and the IC50 was greater than 500 nM.
For the molecule `O=C(c1ccc(Cl)c(-n2ncc3c(=O)[nH]c(Cc4ccccc4OC(F)(F)F)nc32)c1)N1CCCCC1` [Example 35, 1-[2-Chloro-5-(piperidine-1-carbonyl)-phenyl]-6-(2-trifluoromethoxy-benzyl)-1,5-dihydro-pyrazolo[3,4-d]pyrimidin-4-one], the “Selectivity = IC50 PDE 1C/IC50 PDE9A” value at PDE1C turned out to be 10. Also, at PDE9A, the inhibition at 10 µM stood at 93% and the IC50 lay within 10 to 500 nM.
As for `Cc1c(F)cccc1-n1ncc2c(=O)[nH]c(Cc3ccccc3OC(F)(F)F)nc21` [Example 28, 1-(3-Fluoro-2-methyl-phenyl)-6-(2-trifluoromethoxy-benzyl)-1,5-dihydro-pyrazolo[3,4-d]pyrimidin-4-one], the “Selectivity = IC50 PDE 1C/IC50 PDE9A” value on PDE1C was determined as 8. Moreover, on PDE9A, the inhibition at 10 µM came to 96% and the IC50 lay in the range of 10 to 500 nM.
For the molecule `Cc1cc(F)ccc1-n1ncc2c(=O)[nH]c(Cc3ccccc3OC(F)(F)F)nc21` [Example 17, 1-(4-Fluoro-2-methyl-phenyl)-6-(2-trifluoromethoxy-benzyl)-1,5-dihydro-pyrazolo[3,4-d]pyrimidin-4-one], the “Selectivity = IC50 PDE 1C/IC50 PDE9A” value at PDE1C is 9. Further, on PDE9A, the inhibition at 10 µM stood at 98% and the IC50 was in the range of 10 to 500 nM.
For `COc1c(F)cccc1-n1ncc2c(=O)[nH]c(Cc3ccccc3OC(F)(F)F)nc21` [Example 30, 1-(2-Methoxy,3-fluoro-phenyl)-6-(2-trifluoromethoxy-benzyl)-1,5-dihydro-pyrazolo[3,4-d]pyrimidin-4-one] the same measures were 8, 95% and 10 to 500 nM.
For `O=C(c1cccc(-n2ncc3c(=O)[nH]c(Cc4ccccc4OC(F)(F)F)nc32)c1)N1CCOCC1` [Example 38, 1-[3-(N-morpholino-carbonyl)-phenyl]-6-(2-trifluoromethoxy-benzyl)-1,5-dihydro-pyrazolo[3,4-d]pyrimidin-4-one] the same measures were 9, 92% and greater than 500 nM.
As for `O=C(O)c1ccc(Cl)c(-n2ncc3c(=O)[nH]c(Cc4ccccc4OC(F)(F)F)nc32)c1` [Example 30-2, 1-(2-Chloro-5-carbox-phenyl)-6-(2-trifluoromethoxy-benzyl)-1,5-dihydro-pyrazolo[3,4-d]pyrimidin-4-one], the “Selectivity = IC50 PDE 1C/IC50 PDE9A” value on PDE1C is listed as 55. Moreover, at PDE9A, the inhibition at 10 µM was determined as 100% and the IC50 fell in the range of 10 to 500 nM.
For `CCOc1cc(Cl)c(-n2ncc3c(=O)[nH]c(Cc4ccccc4OC(F)(F)F)nc32)cc1C` [Example 27, 1-(2-Chloro-4-ethoxy-5-methyl-phenyl)-6-(2-trifluoromethoxy-benzyl)-1,5-dihydro-pyrazolo [3,4-d]pyrimidin-4-one] the same measures were 14, 67% and greater than 500 nM.
